In PubChem BioAssay (NCI):
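Compound exposure: 48 hours, 5 concentrations, 96-well plates. TGI: concentration producing complete growth inhibition.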

Experiments:
Experiment in all cases: DTP human tumour cell line panel, 48 h
A549 NSCLC = test system: A549 NSCLC
ACHN renal = test system: ACHN renal
CAKI-1 renal = test system: CAKI-1 renal
CCRF-CEM leukemia = test system: CCRF-CEM leukemia
COLO 205 colon = test system: COLO 205 colon
DLD-1 colon = test system: DLD-1 colon
DMS 114 small cell lung = test system: DMS 114 small cell lung
DMS 273 small cell lung = test system: DMS 273 small cell lung
EKVX NSCLC = test system: EKVX NSCLC
HCC-2998 colon = test system: HCC-2998 colon
HCT-116 colon = test system: HCT-116 colon
HCT-15 colon = test system: HCT-15 colon
HOP-62 NSCLC = test system: HOP-62 NSCLC
HOP-92 NSCLC = test system: HOP-92 NSCLC
IGROV1 ovarian = test system: IGROV1 ovarian
K-562 leukemia = test system: K-562 leukemia
KM12 colon = test system: KM12 colon
KM20L2 colon = test system: KM20L2 colon
LOX IMVI melanoma = test system: LOX IMVI melanoma
LXFL 529 NSCLC = test system: LXFL 529 NSCLC
M14 melanoma = test system: M14 melanoma
M19-MEL melanoma = test system: M19-MEL melanoma
MALME-3M melanoma = test system: MALME-3M melanoma
MOLT-4 leukemia = test system: MOLT-4 leukemia
NCI-H226 lung = test system: NCI-H226 lung
NCI-H23 lung = test system: NCI-H23 lung
NCI-H522 lung = test system: NCI-H522 lung
OVCAR-3 ovarian = test system: OVCAR-3 ovarian
OVCAR-4 ovarian = test system: OVCAR-4 ovarian
OVCAR-5 ovarian = test system: OVCAR-5 ovarian
OVCAR-8 ovarian = test system: OVCAR-8 ovarian
RPMI-8226 leukemia = test system: RPMI-8226 leukemia
RXF 393 renal = test system: RXF 393 renal
SF-268 CNS = test system: SF-268 CNS
SF-295 CNS = test system: SF-295 CNS
SF-539 CNS = test system: SF-539 CNS
SK-MEL-2 melanoma = test system: SK-MEL-2 melanoma
SK-MEL-28 melanoma = test system: SK-MEL-28 melanoma
SK-MEL-5 melanoma = test system: SK-MEL-5 melanoma
SK-OV-3 ovarian = test system: SK-OV-3 ovarian
SN12C renal = test system: SN12C renal
SNB-19 CNS = test system: SNB-19 CNS
SNB-78 CNS = test system: SNB-78 CNS
SR leukemia = test system: SR leukemia
SW-620 colon = test system: SW-620 colon
TK-10 renal = test system: TK-10 renal
U251 CNS = test system: U251 CNS
UACC-62 melanoma = test system: UACC-62 melanoma
UO-31 renal = test system: UO-31 renal
XF 498 CNS = test system: XF 498 CNS
786-0 renal = test system: 786-0 renal
HL-60(TB) leukemia = test system: HL-60(TB) leukemia
HOP-18 NSCLC = test system: HOP-18 NSCLC
HT29 colon = test system: HT29 colon
NCI-H460 lung = test system: NCI-H460 lung

N#CCCN(CCC#N)c1ccc(/C=C2\N=C(c3cc([N+](=O)[O-])ccc3Cl)N(NC(=O)CC(=O)Nc3ccccc3Cl)C2=O)cc1
TGI (A549 NSCLC): > 100 µM
TGI (ACHN renal): > 100 µM
TGI (CAKI-1 renal): > 100 µM
TGI (CCRF-CEM leukemia): > 100 µM
TGI (COLO 205 colon): > 100 µM
TGI (DLD-1 colon): > 100 µM
TGI (DMS 114 small cell lung): > 100 µM
TGI (DMS 273 small cell lung): > 100 µM
TGI (EKVX NSCLC): > 100 µM
TGI (HCC-2998 colon): > 100 µM
TGI (HCT-116 colon): > 100 µM
TGI (HCT-15 colon): > 100 µM
TGI (HOP-62 NSCLC): > 100 µM
TGI (HOP-92 NSCLC): > 100 µM
TGI (IGROV1 ovarian): > 100 µM
TGI (K-562 leukemia): > 100 µM
TGI (KM12 colon): > 100 µM
TGI (KM20L2 colon): 34.5 µM
TGI (LOX IMVI melanoma): > 100 µM
TGI (LXFL 529 NSCLC): > 100 µM
TGI (M14 melanoma): > 100 µM
TGI (M19-MEL melanoma): > 100 µM
TGI (MALME-3M melanoma): > 100 µM
TGI (MOLT-4 leukemia): > 100 µM
TGI (NCI-H226 lung): 35.6 µM
TGI (NCI-H23 lung): > 100 µM
TGI (NCI-H522 lung): > 100 µM
TGI (OVCAR-3 ovarian): > 100 µM
TGI (OVCAR-4 ovarian): > 100 µM
TGI (OVCAR-5 ovarian): 66.5 µM
TGI (OVCAR-8 ovarian): > 100 µM
TGI (RPMI-8226 leukemia): > 100 µM
TGI (RXF 393 renal): > 100 µM
TGI (SF-268 CNS): > 100 µM
TGI (SF-295 CNS): > 100 µM
TGI (SF-539 CNS): > 100 µM
TGI (SK-MEL-2 melanoma): > 100 µM
TGI (SK-MEL-28 melanoma): > 100 µM
TGI (SK-MEL-5 melanoma): > 100 µM
TGI (SK-OV-3 ovarian): > 100 µM
TGI (SN12C renal): > 100 µM
TGI (SNB-19 CNS): > 100 µM
TGI (SNB-78 CNS): > 100 µM
TGI (SR leukemia): > 100 µM
TGI (SW-620 colon): > 100 µM
TGI (TK-10 renal): > 100 µM
TGI (U251 CNS): > 100 µM
TGI (UACC-62 melanoma): > 100 µM
TGI (UO-31 renal): > 100 µM
TGI (XF 498 CNS): > 100 µM

CCOC(=O)NC(=O)c1cn(CCN2CCNCC2)c(=O)[nH]c1=O
TGI (786-0 renal): > 100 µM
TGI (A549 NSCLC): > 100 µM
TGI (ACHN renal): > 100 µM
TGI (CAKI-1 renal): > 100 µM
TGI (CCRF-CEM leukemia): > 100 µM
TGI (COLO 205 colon): > 100 µM
TGI (DLD-1 colon): > 100 µM
TGI (DMS 114 small cell lung): > 100 µM
TGI (EKVX NSCLC): > 100 µM
TGI (HCT-116 colon): > 100 µM
TGI (HCT-15 colon): > 100 µM
TGI (HL-60(TB) leukemia): > 100 µM
TGI (HOP-18 NSCLC): > 100 µM
TGI (HOP-62 NSCLC): > 100 µM
TGI (HOP-92 NSCLC): > 100 µM
TGI (HT29 colon): > 100 µM
TGI (IGROV1 ovarian): > 100 µM
TGI (K-562 leukemia): > 100 µM
TGI (KM12 colon): > 100 µM
TGI (LOX IMVI melanoma): > 100 µM
TGI (LXFL 529 NSCLC): > 100 µM
TGI (M14 melanoma): > 100 µM
TGI (M19-MEL melanoma): > 100 µM
TGI (MOLT-4 leukemia): > 100 µM
TGI (NCI-H226 lung): > 100 µM
TGI (NCI-H23 lung): > 100 µM
TGI (NCI-H460 lung): > 100 µM
TGI (NCI-H522 lung): > 100 µM
TGI (OVCAR-3 ovarian): > 100 µM
TGI (OVCAR-4 ovarian): > 100 µM
TGI (OVCAR-5 ovarian): > 100 µM
TGI (OVCAR-8 ovarian): > 100 µM
TGI (RPMI-8226 leukemia): > 100 µM
TGI (RXF 393 renal): > 100 µM
TGI (SF-268 CNS): > 100 µM
TGI (SF-295 CNS): > 100 µM
TGI (SF-539 CNS): > 100 µM
TGI (SK-MEL-2 melanoma): > 100 µM
TGI (SK-MEL-28 melanoma): > 100 µM
TGI (SK-MEL-5 melanoma): > 100 µM
TGI (SK-OV-3 ovarian): > 100 µM
TGI (SN12C renal): > 100 µM
TGI (SNB-19 CNS): > 100 µM
TGI (SNB-78 CNS): > 100 µM
TGI (SR leukemia): > 100 µM
TGI (SW-620 colon): > 100 µM
TGI (TK-10 renal): > 100 µM
TGI (U251 CNS): > 100 µM
TGI (UACC-62 melanoma): > 100 µM
TGI (XF 498 CNS): > 100 µM
